Several values for one entry are separate records, joined by “and”; a condition that tells them apart may be missing. Identical values can stand only once. Toxic doses and inconclusive results are not listed. The calls were made as follows: active = survival T/C of 150% or more; inactive = T/C below 125% in these data.
Tested on: CD2F1 mice, L1210 leukemia ip, survival T/C
Assay: NCI In Vivo Anticancer Drug Screen. Data for tumor model L1210 Leukemia (intraperitoneal) in CD2F1 (CDF1) mice
Conditions: higher = longer survival
Method in brief: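 Vehicle-treated tumor-bearing mice served as controls (C) for compound-treated mice (T). Reported figure is T divided by C.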

[1] = endpoint: mean survival time, dose: 100.0 mg/kg/injection, schedule: Q01DX009 (ip), vehicle: saline with Tween-80
[2] = endpoint: mean survival time, dose: 200.0 mg/kg/injection, schedule: Q01DX009 (ip), vehicle: saline with Tween-80
[3] = endpoint: mean survival time, dose: 400.0 mg/kg/injection, schedule: Q01DX009 (ip), vehicle: saline with Tween-80
[4] = endpoint: mean survival time, dose: 100.0 mg/kg/injection, schedule: Q04DX002 (ip), vehicle: saline
[5] = endpoint: mean survival time, dose: 200.0 mg/kg/injection, schedule: Q04DX002 (ip), vehicle: saline
[6] = endpoint: mean survival time, dose: 25.0 mg/kg/injection, schedule: Q04DX003 (ip), vehicle: saline with Tween-80
[7] = endpoint: mean survival time, dose: 50.0 mg/kg/injection, schedule: Q04DX003 (ip), vehicle: saline with Tween-80
[8] = endpoint: mean survival time, dose: 100.0 mg/kg/injection, schedule: Q04DX003 (ip), vehicle: saline with Tween-80
[9] = endpoint: mean survival time, dose: 100.0 mg/kg/injection, schedule: Q01DX001 (ip), vehicle: saline with Tween-80
[10] = endpoint: mean survival time, dose: 200.0 mg/kg/injection, schedule: Q01DX001 (ip), vehicle: saline with Tween-80
[11] = endpoint: mean survival time, dose: 400.0 mg/kg/injection, schedule: Q01DX001 (ip), vehicle: saline with Tween-80

Measured: T/C

S=P(N1CCOCC1)(N1CC1)N1CC1
active: endpoint: mean survival time, dose: 20.0 mg/kg/injection, schedule: Q01DX007 (ip), vehicle: saline 172 % of control | endpoint: mean survival time, dose: 20.0 mg/kg/injection, schedule: Q01DX009 (ip), vehicle: saline 171 % of control | endpoint: mean survival time, dose: 40.0 mg/kg/injection, schedule: Q03DX003 (ip), vehicle: saline 223 % of control | endpoint: mean survival time, dose: 40.0 mg/kg/injection, schedule: Q04DX003 (ip), vehicle: saline 218 % of control
inactive: endpoint: mean survival time, dose: 10.0 mg/kg/injection, schedule: Q01DX007 (ip), vehicle: saline 116 % of control | endpoint: mean survival time, dose: 10.0 mg/kg/injection, schedule: Q03DX003 (ip), vehicle: saline 118 % of control | endpoint: mean survival time, dose: 10.0 mg/kg/injection, schedule: Q04DX003 (ip), vehicle: saline 114 % of control | endpoint: mean survival time, dose: 12.5 mg/kg/injection, schedule: Q01DX Z (ip), vehicle: carboxymethylcellulose (CMC) 118 % of control | endpoint: mean survival time, dose: 25.0 mg/kg/injection, schedule: Q01DX Z (ip), vehicle: carboxymethylcellulose (CMC) 100 % of control | endpoint: mean survival time, dose: 40.0 mg/kg/injection, schedule: Q01DX007 (ip), vehicle: saline 86 % of control | endpoint: mean survival time, dose: 40.0 mg/kg/injection, schedule: Q01DX009 (ip), vehicle: saline 100 % of control

Nc1nc2c(nnn2C2CC(O)C(CO)C2)c(=O)[nH]1 (stereo not given)
inactive: [1] 100 % of control | [2] 104 % of control

CCCCCCCCCC[N+]1(C)CCC[N+](C)(CCCCCCCCCC)CC1 (stereo not given)
inactive: endpoint: mean survival time, dose: 12.5 mg/kg/injection, schedule: Q01DX001 (ip), vehicle: saline with Tween-80 95 % of control | endpoint: mean survival time, dose: 25.0 mg/kg/injection, schedule: Q01DX001 (ip), vehicle: saline with Tween-80 105 % of control

CCCC[N+](CCCC)(CCCC)Cc1ccccc1
inactive: endpoint: mean survival time, dose: 1.5 mg/kg/injection, schedule: Q04DX003 (ip), vehicle: saline 100 % of control | endpoint: mean survival time, dose: 3.0 mg/kg/injection, schedule: Q04DX003 (ip), vehicle: saline 97 % of control | endpoint: mean survival time, dose: 6.0 mg/kg/injection, schedule: Q04DX003 (ip), vehicle: saline 94 % of control

O=C1CC(c2ccccc2)C(c2ccccc2)=C1Cl (stereo not given)
inactive: [1] 94 % of control | [2] 98 % of control | [3] 96 % of control

N#CC(/C=C/c1ccccc1)Nc1ccc(CCc2ccc(NC(C#N)/C=C/c3ccccc3)cc2)cc1 (stereo not given)
inactive: [1] 94 % of control | [2] 90 % of control | [3] 100 % of control

CCC(/C=C/C1OC(=O)C=CC1C)=C\C(C)C/C=C/C(C)=C/C(C)C(=O)C(C)C(O)C(C)C/C(C)=C/C(=O)O (stereo not given)
inactive: endpoint: median survival time, dose: 6.25 micrograms/kg/injection, schedule: Q01DX005 (ip), vehicle: saline + alcohol 120 % of control | endpoint: median survival time, dose: 12.5 micrograms/kg/injection, schedule: Q01DX005 (ip), vehicle: saline + alcohol 119 % of control | endpoint: median survival time, dose: 12.5 micrograms/kg/injection, schedule: Q01DX009 (ip), vehicle: saline + alcohol 101 % of control | endpoint: median survival time, dose: 25.0 micrograms/kg/injection, schedule: Q01DX005 (ip), vehicle: saline + alcohol 120 % of control | endpoint: median survival time, dose: 25.0 micrograms/kg/injection, schedule: Q01DX009 (ip), vehicle: saline + alcohol 101 % of control | endpoint: median survival time, dose: 50.0 micrograms/kg/injection, schedule: Q01DX009 (ip), vehicle: saline + alcohol 115 % of control

CS(=O)CSCC(N)C(=O)O (stereo not given)
inactive: endpoint: mean survival time, dose: 12.5 mg/kg/injection, schedule: Q01DX009 (ip), vehicle: water 107 % of control | endpoint: mean survival time, dose: 25.0 mg/kg/injection, schedule: Q01DX009 (ip), vehicle: water 100 % of control | endpoint: mean survival time, dose: 50.0 mg/kg/injection, schedule: Q01DX009 (ip), vehicle: water 102 % of control | endpoint: mean survival time, dose: 100.0 mg/kg/injection, schedule: Q01DX009 (ip), vehicle: water 102 % of control | endpoint: mean survival time, dose: 200.0 mg/kg/injection, schedule: Q01DX009 (ip), vehicle: water 100 % of control

Nc1nc(=O)[nH]c(N)c1N
inactive: [4] 97 % of control | [5] 117 % of control

C[CH2][Sn]([c]1ccccc1)([c]1ccccc1)[c]1ccccc1
inactive: endpoint: mean survival time, dose: 12.5 mg/kg/injection, schedule: Q04DX003 (ip), vehicle: saline with Tween-80 97 % of control | [6] 100 % of control | [7] 94 % of control

Nc1ccccc1N
inactive: endpoint: mean survival time, dose: 25.0 mg/kg/injection, schedule: Q01DX009 (ip), vehicle: saline with Tween-80 95 % of control | [2] 93 % of control

CC(c1ccccc1)S(=O)[O-].[C-]#[O+].[C-]#[O+].[Fe+6].[c-]1[c-][c-][cH-][c-]1 (stereo not given)
inactive: [6] 94 % of control | [7] 100 % of control | [8] 97 % of control

COc1cc2c(cc1OC)C1CC(=O)C3=C(CCCC3)N1CC2 (stereo not given)
inactive: [8] 101 % of control | endpoint: mean survival time, dose: 200.0 mg/kg/injection, schedule: Q04DX003 (ip), vehicle: saline with Tween-80 95 % of control | endpoint: mean survival time, dose: 400.0 mg/kg/injection, schedule: Q04DX003 (ip), vehicle: saline with Tween-80 89 % of control

C=CC(NC(=O)CN)C(=O)O (stereo not given)
inactive: [9] 115 % of control | [4] 107 % of control | [10] 105 % of control | [5] 93 % of control | [11] 114 % of control | endpoint: mean survival time, dose: 400.0 mg/kg/injection, schedule: Q04DX002 (ip), vehicle: saline 110 % of control

CCCCN1C(=O)C=CC1=O
inactive: endpoint: mean survival time, dose: 0.78 mg/kg/injection, schedule: Q01DX009 (ip), vehicle: saline with Tween-80 94 % of control | endpoint: mean survival time, dose: 1.56 mg/kg/injection, schedule: Q01DX009 (ip), vehicle: saline with Tween-80 105 % of control | endpoint: mean survival time, dose: 3.12 mg/kg/injection, schedule: Q01DX009 (ip), vehicle: saline with Tween-80 91 % of control

CCCCCCCCCCC(C(=O)OCC)P(=O)(OCC)OCC (stereo not given)
inactive: endpoint: mean survival time, dose: 75.0 mg/kg/injection, schedule: Q01DX001 (ip), vehicle: saline 98 % of control | endpoint: mean survival time, dose: 150.0 mg/kg/injection, schedule: Q01DX001 (ip), vehicle: saline 102 % of control | endpoint: mean survival time, dose: 300.0 mg/kg/injection, schedule: Q01DX001 (ip), vehicle: saline 96 % of control

CC1CN1C(=O)NCCCCCCNC(=O)N1CC1C (stereo not given)
active: endpoint: mean survival time, dose: 5.0 mg/kg/injection, schedule: Q01DX009 (ip), vehicle: Klucel (hydroxypropylcellulose) (HPC) 156 % of control
inactive: endpoint: mean survival time, dose: 0.31 mg/kg/injection, schedule: Q01DX009 (ip), vehicle: Klucel (hydroxypropylcellulose) (HPC) 89 % of control | endpoint: mean survival time, dose: 0.63 mg/kg/injection, schedule: Q01DX009 (ip), vehicle: Klucel (hydroxypropylcellulose) (HPC) 119 % of control and 101 % of control | endpoint: mean survival time, dose: 1.25 mg/kg/injection, schedule: Q01DX009 (ip), vehicle: Klucel (hydroxypropylcellulose) (HPC) 97 % of control | endpoint: mean survival time, dose: 2.5 mg/kg/injection, schedule: Q01DX001 (ip), vehicle: Klucel (hydroxypropylcellulose) (HPC) 98 % of control | endpoint: mean survival time, dose: 2.5 mg/kg/injection, schedule: Q01DX009 (ip), vehicle: Klucel (hydroxypropylcellulose) (HPC) 110 % of control | endpoint: mean survival time, dose: 5.0 mg/kg/injection, schedule: Q01DX001 (ip), vehicle: Klucel (hydroxypropylcellulose) (HPC) 94 % of control | endpoint: mean survival time, dose: 10.0 mg/kg/injection, schedule: Q01DX001 (ip), vehicle: Klucel (hydroxypropylcellulose) (HPC) 100 % of control | endpoint: mean survival time, dose: 20.0 mg/kg/injection, schedule: Q01DX001 (ip), vehicle: Klucel (hydroxypropylcellulose) (HPC) 107 % of control

CN1CC[C@]23c4c5ccc(O)c4O[C@H]2C(=O)CC[C@H]3[C@H]1C5
inactive: endpoint: mean survival time, dose: 12.5 mg/kg/injection, schedule: Q01DX009 (ip), vehicle: saline 95 % of control | endpoint: mean survival time, dose: 25.0 mg/kg/injection, schedule: Q01DX009 (ip), vehicle: saline 102 % of control | endpoint: mean survival time, dose: 50.0 mg/kg/injection, schedule: Q01DX009 (ip), vehicle: saline 93 % of control

COc1cc(Cl)ccc1NC(=O)Oc1ccc(C)cc1[N+](=O)[O-]
inactive: endpoint: mean survival time, dose: 5.0 mg/kg/injection, schedule: Q01DX009 (ip), vehicle: saline with Tween-80 93 % of control | [1] 96 % of control | [2] 96 % of control

CN(C)N=Nc1cc(C(N)=O)cc(C(N)=O)c1
inactive: endpoint: mean survival time, dose: 18.75 mg/kg/injection, schedule: Q01DX009 (ip), vehicle: Klucel (hydroxypropylcellulose) (HPC) 101 % of control | endpoint: mean survival time, dose: 37.5 mg/kg/injection, schedule: Q01DX009 (ip), vehicle: Klucel (hydroxypropylcellulose) (HPC) 106 % of control | endpoint: mean survival time, dose: 75.0 mg/kg/injection, schedule: Q01DX009 (ip), vehicle: Klucel (hydroxypropylcellulose) (HPC) 124 % of control

COCCNc1ccc([N+](=O)[O-])cc1[N+](=O)[O-]
inactive: [9] 92 % of control | [1] 95 % of control | [10] 92 % of control | [2] 93 % of control | [11] 96 % of control | [3] 91 % of control

CCOC(=O)CCc1ccc2c(c1)OCO2
inactive: [1] 103 % of control | [2] 103 % of control | [3] 113 % of control

N=C(CN1CCCCC1)N1CCCCC1
inactive: endpoint: mean survival time, dose: 25.0 mg/kg/injection, schedule: Q04DX002 (ip), vehicle: saline 104 % of control | endpoint: mean survival time, dose: 50.0 mg/kg/injection, schedule: Q04DX002 (ip), vehicle: saline 101 % of control | [4] 112 % of control

Source: PubChem BioAssay AID256 (DTP/NCI, 2004)
